Measurements taken from patent publication US9605005B2, “Alkynyl alcohols and methods of use” (Genentech, Inc., priority 2013, dated 2017).

How the values were obtained:
[1] = molecular target: nuclear factor-kappa B (NF-kB)-inducing kinase (NIK) (Homo sapiens (Human), UniProt Q99558); assay: NIK enzyme inhibition assay (Transcreener ADP, NIK ADP-FP); assay type: biochemical; details: purified NIK 0.5 nM, 10 μM ATP, fluorescence polarization; read-out: NIK ADP-FP (Ki μM)
[2] = test system: REL-A (p65) nuclear translocation, HeLa cells; assay: REL-A (p65) nuclear translocation assay in HeLa cells (classical NF-kB signaling, TNF-α stimulated); assay type: cell-based; details: Homo sapiens, 0.5 h; HeLa cells, 10 ng/mL TNF-α for 30 minutes; read-out: REL-A HeLa Transloc Assay (IC50)
Summary of the method: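 HeLa cells were exposed to test compounds at various concentrations (0.2% DMSO final) in medium with 10% fetal bovine serum for 4.5 hours, then stimulated for 30 minutes with 10 ng/mL TNF-α. After fixation in 4% paraformaldehyde, 0.1% Triton X-100 permeabilization and staining with 400 ng/mL anti-REL-A (p65) antibody, Alexa488 secondary and DRAQ5, Opera imaging gave nuclear-to-cytoplasmic signal ratios to calculate IC50.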

[3] = test system: p52 (NF-kB2) nuclear translocation, HeLa cells; assay: p52 (NF-kB2) nuclear translocation assay in HeLa cells (non-classical NF-kB signaling, anti-lymphotoxin beta receptor antibody stimulated); assay type: cell-based; details: Homo sapiens, 100 ng/mL anti-lymphotoxin beta receptor antibody for 5 hours, read-out: p52 HeLa Transloc Assay (IC50)
Summary of the method: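 HeLa cells in 10% FBS medium were treated with compound (0.2% DMSO final) and stimulated with 100 ng/mL anti-lymphotoxin beta receptor antibody for 5 h. Fixed cells were immunostained for p52 and imaged with DRAQ5 nuclear stain. Translocation is the nuclear to cytoplasmic intensity ratio, and IC50 values are in micromolar.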

nuclear factor-kappa B (NF-kB)-inducing kinase (NIK), sequence (Q99558 whole entry): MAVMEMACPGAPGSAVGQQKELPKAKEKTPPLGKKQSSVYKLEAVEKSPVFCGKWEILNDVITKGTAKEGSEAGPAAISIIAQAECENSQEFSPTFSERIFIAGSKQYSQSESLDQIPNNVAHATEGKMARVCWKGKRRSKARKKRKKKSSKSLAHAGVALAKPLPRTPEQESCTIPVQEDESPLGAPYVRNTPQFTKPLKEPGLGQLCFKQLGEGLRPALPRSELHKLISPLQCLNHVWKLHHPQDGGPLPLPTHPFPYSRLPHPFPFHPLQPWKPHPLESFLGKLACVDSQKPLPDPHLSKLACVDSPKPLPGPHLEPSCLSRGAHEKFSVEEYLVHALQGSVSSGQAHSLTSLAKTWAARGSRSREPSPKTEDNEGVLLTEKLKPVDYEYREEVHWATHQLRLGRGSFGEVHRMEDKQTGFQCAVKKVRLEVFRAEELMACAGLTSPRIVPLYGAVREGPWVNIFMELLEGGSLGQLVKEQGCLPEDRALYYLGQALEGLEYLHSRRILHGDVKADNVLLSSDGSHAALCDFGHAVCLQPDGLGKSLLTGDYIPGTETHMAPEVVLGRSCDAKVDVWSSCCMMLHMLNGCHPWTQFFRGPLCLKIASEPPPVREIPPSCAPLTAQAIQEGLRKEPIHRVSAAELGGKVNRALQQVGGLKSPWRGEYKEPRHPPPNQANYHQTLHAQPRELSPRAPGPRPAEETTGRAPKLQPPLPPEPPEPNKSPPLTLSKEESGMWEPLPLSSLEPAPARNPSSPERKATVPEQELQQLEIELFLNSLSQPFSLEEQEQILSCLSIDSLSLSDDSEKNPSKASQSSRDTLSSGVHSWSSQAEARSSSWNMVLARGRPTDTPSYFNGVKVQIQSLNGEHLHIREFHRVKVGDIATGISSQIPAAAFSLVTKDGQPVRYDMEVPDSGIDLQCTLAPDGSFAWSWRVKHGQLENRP

In the case of CN1CC[C@@](O)(C#Cc2cccc(-n3nc(C(N)=O)c4ccc(-c5cnn(C)c5)nc43)c2)C1=O [Compound 156, 1-[3-[2-[(3R)-3-hydroxy-1-methyl-2-oxo-pyrrolidin-3-yl]ethynyl]phenyl]-6-(1-meth-ylpyrazol-4-yl)pyrazolo[3,4-b] pyridine-3-carboxamide], the Ki [1] is reported as 0.09 nM, the IC50 [2] is reported as 2000 nM and the IC50 [3] is reported as 95.7 nM.
CCCC(=O)N(C)Cc1ccc2c(c1)c(C(N)=O)nn2-c1cc(C#C[C@]2(O)CCN(C)C2=O)ccn1 [Compound 142, 5-[[butanoyl(methyl)amino]methyl]-1-[4-[2-[(3R)-3-hy-droxy-1-methyl-2-oxo-pyrroli-din-3-yl]ethynyl]-2-pyri-dyl]indazole-3-carboxamide] showed a Ki [1] of 1.71 nM, an IC50 [2] of 20000 nM and an IC50 [3] of 793 nM.
Cc1nnc([C@](C)(O)C#Cc2cccc(-c3nc(C(N)=O)n4cc(Cl)ccc34)c2)o1 [Compound 185, 6-chloro-1-[3-[(3R)-3-hydroxy-3-(5-methyl-1,3,4-oxadiazol-2-yl)but-1-ynyl]phenyl]imidazo[1,5-a]pyridine-3-carboxamide] was tested, and the Ki [1] was 7.54 nM, the IC50 [2] was over 2000 nM and the IC50 [3] was 1500 nM.
With Cc1nnc([C@](C)(O)C#Cc2cccc(-c3nc(C(N)=O)n4ccc(Cl)cc34)c2)o1 [Compound 187, 7-chloro-1-[3-[(3R)-3-hydroxy-3-(5-methyl-1,3,4-oxadiazol-2-yl)but-1-ynyl]phenyl] imidazo[1,5-a]pyridine-3-carboxamide] the Ki [1] was 1.12 nM, the IC50 [2] was over 2000 nM and the IC50 [3] was 198 nM.
Compound CN1CC[C@@](O)(C#Cc2cccc(-n3nc(C(N)=O)c4scnc43)c2)C1=O [Compound 144, 1-[3-[2-[(3R)-3-hydroxy-1-methyl-2-oxo-pyrrolidin-3-yl]ethynyl]phenyl]pyrazolo [3,4-d]thiazole-3-carboxamide] has a Ki [1] of 0.31 nM, an IC50 [2] of 20000 nM and an IC50 [3] of 33.1 nM.
For CN1CC[C@@](O)(C#Cc2cccc(-c3nc(C(N)=O)n4ccc(C(F)(F)F)cc34)c2)C1=O [Compound 91, 1-[3-[2-[(3R)-3-hydroxy-1-methyl-2-oxo-pyrrolidin-3-yl]ethynyl]phenyl]-7-(trifluoro-methyl)imidazo[1,5-a]pyri-dine-3-carboxamide], the Ki [1] was 0.15 nM, the IC50 [2] was 20000 nM and the IC50 [3] was 18.9 nM.
Compound CN1CC[C@@](O)(C#Cc2cccc(-c3nc(C(N)=O)n4cc(CN5CCOCC5)ccc34)c2)C1=O [Compound 100, 1-[3-[2-[(3R)-3-hydroxy-1-methyl-2-oxo-pyrrolidin-3-yl]ethynyl]phenyl]-6-(morpho-linomethyl)imidazo[1,5-a]pyridine-3-carboxamide] has a Ki [1] of 1.65 nM, an IC50 [2] of 2000 nM and an IC50 [3] of 156 nM.
With COc1ccc2c(c1)c(C(N)=O)nn2-c1cc(C#C[C@]2(O)CCN(C)C2=O)ccn1 [Compound 65, 1-[4-[2-[(3R)-3-hydroxy-1-methyl-2-oxo-pyrrolidin-3-yl]ethynyl]-2-pyridyl]-5-meth-oxy-indazole-3-carboxamide] the Ki [1] was 0.05 nM, the IC50 [2] was 2000 nM and the IC50 [3] was 14 nM.
Compound CN1CC[C@@](O)(C#Cc2cc(-n3nc(C(N)=O)c4c3CCCC4)ccn2)C1=O [Compound 166, 1-[2-[2-[(3R)-3-hydroxy-1-methyl-2-oxo-pyrrolidin-3-yl]ethynyl]-4-pyridyl]-4,5,6,7-tetrahydroindazole-3-carbox-amide] has a Ki [1] of 1.19 nM, an IC50 [2] of 20000 nM and an IC50 [3] of 320 nM.
Compound CN1CC[C@@](O)(C#Cc2cccc(-n3nc(C(N)=O)c4cc(CO)ccc43)c2)C1=O [Compound 35, 5-(hydroxymethyl)-1-[3-[2-[(3R)-3-hydroxy-1-methyl-2-oxo-pyrrolidin-3-yl]ethynyl]phenyl]indazole-3-carbox-amide] has a Ki [1] of 1.48 nM, an IC50 [2] of 20000 nM and an IC50 [3] of 737 nM.
COc1ccn2c(C(N)=O)nc(-c3cccc(C#C[C@@](C)(O)c4nnc(C)o4)c3)c2c1 [Compound 181, 1-[3-[(3R)-3-hydroxy-3-(5-methyl-1,3,4-oxadiazol-2-yl)but-1-ynyl]phenyl]-7-methoxy-imidazo[1,5-a] pyridine-3-carboxamide] showed a Ki [1] of 0.1 nM, an IC50 [2] of over 2000 nM and an IC50 [3] of 48 nM.
In the case of CN1CC[C@@](O)(C#Cc2cccc(-c3nc(C(N)=O)c4cccnn34)c2)C1=O [Compound 86, 7-[3-[2-[(3R)-3-hydroxy-1-methyl-2-oxo-pyrrolidin-3-yl]ethynyl]phenyl]imidazo[1,5-b]pyridazine-5-carboxamide], the Ki [1] is reported as 0.73 nM, the IC50 [2] is reported as 20000 nM and the IC50 [3] is reported as 356 nM.
Compound CN1CC[C@@](O)(C#Cc2ccc(F)c(-c3nc(C(N)=O)n4cc(Cl)ccc34)c2)C1=O [Compound 186, 6-chloro-1-[2-fluoro-5-[2-[(3R)-3-hydroxy-1-methyl-2-oxo-pyrrolidin-3-yl]ethynyl]phenyl]imidazo[1,5-a] pyridine-3-carboxamide] has a Ki [1] of 0.1 nM, an IC50 [2] of over 2000 nM and an IC50 [3] of 36 nM.
